Like-named read-outs stand apart in the source and are kept apart here.
Tested on: HEK293 cells
Assay: HEK293 VLCFA-LPC IC50 determination (13C-labeled C26:0 LPC by UHPLC/MS)
Format: cell-based, human
Conditions: Homo sapiens, average of one or more replicates, read-out: Average HEK293 IC50
Description: HEK293 cells were treated with compounds, such as those listed in Tables A-E of Example 1, using the representative manual protocols described below. The protocols below were also adapted to a semi-automated protocol using standard methods in the art.
Cell Culture Growth Conditions:
HEK293 cells were maintained in FreeStyle F17 media (Gibco # A13835) supplemented with PenStrep (1%, Gibco #15070-063), Glutamax (2%, Gibco #35050-061), and Pluronic (0.1%, Gibco #24040-032) (“supplemented media”). Suspension cultures were grown in disposable Erlenmeyer flasks at about 120 rpm, 37° C., 5% CO2, and 80% humidity. Cell densities were kept between about 0.5 and 3 million cells per mL, in about 50-200 mL per flask.
Treatment of Cells with Compounds Provided Herein:
The cells were treated with compounds using either a total of 900 uL cell media volume (high-volume assay) or a total of 200 uL cell media volume (low-volume assay). In the high volume assay, 450 μL of supplemented media plus 13C-acetate (1.0 mg/mL, Sigma Aldrich #282014) were added to 0.5 μL of a compound (such as those in Tables A-E) in DMSO in a polypropylene v-bottom plate (Costar #3363) in 1 of 3 dilution schemes. The contents of each well were mixed and transferred to a sterile polypropylene deep-well v-bottom plate (Costar #3960). 450 μL of cultured HEK293 cells in supplemented media at a density of 1.0 million cells/mL was added to each well. In the low volume assay, 100 μL of supplemented media plus 13C-acetate (1.0 mg/mL, Sigma Aldrich #282014) were added to either 0.1 μL or 1.0 uL of a compound (such as those in Tables A-E) in DMSO in a polypropylene v-bottom plate (Costar #3363) in 1 of 3 dilution schemes. 100 μL of cultured HEK293 cells in supplemented media at a density of 1.0 million cells/mL was added to each well. The high volume and low volume plates were sealed with either AirPore Tape Sheets (Qiagen #19571) or Duetz plate covers to control evaporation and placed into a shaking incubator at 225 rpm, 37° C., 5% CO2, and 80% humidity for 48 hours. For both the high and low volume assays the 3 dilution schemes used were as follows:
Following incubation, treated cells were harvested by centrifugation at 1690×g for 10 minutes. In the high volume assay 200 uL treated cells were transferred to a polypropylene v-bottom plate (Costar #3363) prior to centrifugation. In the low volume assay the incubation plate was centrifuged directly, without a transfer step. The supernatant was then discarded and the analytes were extracted using 1 of 2 different extraction schemes. In the first scheme, the cell pellet was visibly broken up by mixing the cell pellet up and down in 100 μL of hexane/isopropanol (60:40) 20 times. The resulting mixture was transferred to a 0.45 μm Durapore membrane (Millipore #MSH VN4510) atop a polypropylene v-bottom plate (Costar #3363) and filtered by centrifugation at 1690×g for 5 minutes. 120 μL of n-butanol containing 10 nM C13:0 lysophosphatidylcholine was added to the filtrate as an injection control standard, then the entire volume was transferred to a new Durapore membrane/v-bottom plate. In the second scheme, the cell pellet was visibly broken up by mixing the cell pellet up and down in 180 μL of methanol containing 10 nM C13:0 lysophosphatidylcholine 20 times. The resulting mixture was transferred to a 0.45 μm Durapore membrane (Millipore #MSH VN4510) atop a polypropylene v-bottom plate and filtered by centrifugation at 1690×g for 5 minutes. In both schemes, the plates were then sealed with pierceable capmats (Micronic MP53017) and stored at −20 OC until analyzed.
UHPLC/Mass Spectrometry Readout:
The filtered organic extraction was analyzed with a 1290 Agilent Infinity Series UHPLC coupled to an ABI Sciex QTrap 6500 mass spectrometer. […]

[1] = HEK293, 48 h, 13C-labeled C26:0 LPC, 48 hours

Structure (SMILES) | IC50 (HEK293, HEK293 cells) [µM] | IC50 [1] [µM]
COc1ncc(-n2nc(NC(=O)C3(c4ccccc4F)CC3)cc2F)cc1F [Compound 442, N-[5-fluoro-1-(5-fluoro-6-methoxy-3-pyridyl)pyrazol-3-yl]-1-(2-fluorophenyl)cyclopropanecarboxamide] | > 5 | 
O=C(Cc1ccccc1)Nc1ccn(-c2ncccc2F)n1 [Compound 93, N-[1-(3-fluoro-2-pyridyl)pyrazol-3-yl]-2-phenyl-acetamide] | > 10 | 
Cn1cc(-n2ccc(NC(=O)C3(c4ccccc4F)CC3)n2)nn1 [Compound 400, 1-(2-fluorophenyl)-N-(1-(1-methyl-1H-1,2,3-triazol-4-yl)-1H-pyrazol-3-yl)cyclopropane-1-carboxamide] | > 5 | 
Cc1cc(-n2ccc(NC(=O)C3(c4ccc(F)cc4)CC3)n2)ccn1 [Compound 108, 1-(4-fluorophenyl)-N-[1-(2-methyl-4-pyridyl)pyrazol-3-yl]cyclopropanecarboxamide] | 0.77 | 
O=C(Nc1ccn(-c2ccnc(F)c2)n1)[C@]1(c2ccccc2)CC12CCCC2 [Compound 164, (2R)-N-[1-(2-fluoro-4-pyridyl)pyrazol-3-yl]-2-phenyl-spiro[2.4]heptane-2-carboxamide] | > 5 | 
O=C(Nc1ccn(-c2cncc(F)c2)n1)C1(c2ccccc2)CC1(F)F (racemic) [Compound 420, 2,2-difluoro-N-(1-(5-fluoropyridin-3-yl)-1H-pyrazol-3-yl)-1-phenylcyclopropane-1-carboxamide] | 0.1 | 
O=C(Cn1cccc1)Nc1ccn(-c2ccnc(F)c2)n1 [Compound 295, N-[1-(2-fluoro-4-pyridyl)pyrazol-3-yl]-2-pyrrol-1-yl-acetamide] | > 5 | 
CC1CC1(C(=O)Nc1ccn(-c2ccncc2)n1)c1ncccc1F (stereo not drawn) [Compound 528, 1-(3-fluoro-2-pyridyl)-2-methyl-N-[1-(4-pyridyl)pyrazol-3-yl]cyclopropanecarboxamide] | 0.27 | 
CCCC(C(=O)Nc1ccn(-c2ccccc2)n1)c1ccccc1 (stereo not drawn) [Compound 176, 2-phenyl-N-(1-phenylpyrazol-3-yl)pentanamide] | 0.87 | 
COc1ccc(-n2ccc(NC(=O)C3(c4ccccc4F)CC3)n2)c(OC)c1 [Compound 428] | > 5 | 
COc1cc(-n2ccc(NC(=O)C3(c4ccccc4F)CC3)n2)c(F)cn1 [Compound 467, N-[1-(5-fluoro-2-methoxy-4-pyridyl)pyrazol-3-yl]-1-(2-fluorophenyl)cyclopropanecarboxamide] | 2.7 | 
COc1ccc(F)c(C2(C(=O)Nc3ccn(-c4ccnc(F)c4)n3)CC2)c1 [Compound 314, 1-(2-fluoro-5-methoxy-phenyl)-N-[1-(2-fluoro-4-pyridyl)pyrazol-3-yl]cyclopropanecarboxamide] | 0.057 | 
O=C(Nc1ccn(-c2ccc(F)c(F)c2)n1)C1(c2ccccc2F)CC1 [Compound 190, N-[1-(3,4-difluorophenyl)pyrazol-3-yl]-1-(2-fluorophenyl)cyclopropanecarboxamide] | 0.15 | 
O=C(Nc1ccn(-c2ccnc(Cl)c2)n1)C1(c2ccccc2)CC1 [Compound 84, N-(1-(2-chloropyridin-4-yl)-1H-pyrazol-3-yl)-1-phenylcyclopropane-1-carboxamide] | 0.061 | 
O=C(Nc1ccn(-c2ccnc(F)c2)n1)C1(c2ccc(I)cc2)CC1 [Compound 238, N-[1-(2-fluoro-4-pyridyl)pyrazol-3-yl]-1-(4-iodophenyl)cyclopropanecarboxamide] | 0.12 | 
O=C(Cc1ccccc1F)Nc1ccn(-c2cccc(C(F)(F)F)c2)n1 [Compound 158, 2-(2-fluorophenyl)-N-[1-[3-(trifluoromethyl)phenyl]pyrazol-3-yl]acetamide] | 2.9 | 
Cc1nccc(-n2ccc(NC(=O)C3(c4ccccc4F)CC3)n2)c1C [Compound 343, N-[1-(2,3-dimethyl-4-pyridyl)pyrazol-3-yl]-1-(2-fluorophenyl)cyclopropanecarboxamide] |  | > 5

Structure (SMILES) | IC50 (HEK293, HEK293 cells) [µM] | IC50 [1] [µM]
N#Cc1ncccc1-n1ccc(NC(=O)C2(c3ccccc3F)CC2)n1 [Compound 320, N-[1-(2-cyano-3-pyridyl)pyrazol-3-yl]-1-(2-fluorophenyl)cyclopropanecarboxamide] |  | > 5
COc1cncc(OC)c1-n1ccc(NC(=O)C2(c3ccccc3F)CC2)n1 [Compound 347, N-[1-(3,5-dimethoxy-4-pyridyl)pyrazol-3-yl]-1-(2-fluorophenyl)cyclopropanecarboxamide] |  | > 5
O=C(Nc1ccn(-c2ncccc2F)n1)C1(c2ncccc2F)CC1 [Compound 460, 1-(3-fluoro-2-pyridyl)-N-[1-(3-fluoro-2-pyridyl)pyrazol-3-yl]cyclopropanecarboxamide] | > 2 | 
O=C(Nc1ccn(-c2ccc(F)c(F)c2)n1)C1(c2ncccn2)CC1 [Compound 532, N-[1-(3,4-difluorophenyl)pyrazol-3-yl]-1-pyrimidin-2-yl-cyclopropanecarboxamide] | > 5 | 
Cc1ncnc(C)c1-n1ccc(NC(=O)C2(c3ccccc3F)CC2)n1 [Compound 339, N-[1-(4,6-dimethylpyrimidin-5-yl)pyrazol-3-yl]-1-(2-fluorophenyl)cyclopropanecarboxamide] |  | > 5
C[C@H](C(=O)Nc1ccn(-c2ccccc2)n1)c1ccccc1 [Compound 20, (2S)-2-phenyl-N-(1-phenylpyrazol-3-yl)propanamide] | 0.026 | 
O=C(Nc1ccn(-c2ccnc(F)c2)n1)C1(c2ccccc2)COC1 [Compound 149, N-[1-(2-fluoro-4-pyridyl)pyrazol-3-yl]-3-phenyl-oxetane-3-carboxamide] | 0.66 | 
Cc1cc(C)cc(C2(C(=O)Nc3ccn(-c4ccccc4)n3)CC2)c1 [Compound 36, 1-(3,5-dimethylphenyl)-N-(1-phenylpyrazol-3-yl)cyclopropanecarboxamide] | > 5 | 
Nc1c(F)cc(-n2ccc(NC(=O)C3(c4ccccc4F)CC3)n2)cc1F [Compound 384, N-[1-(4-amino-3,5-difluoro-phenyl)pyrazol-3-yl]-1-(2-fluorophenyl)cyclopropanecarboxamide] |  | 0.98
CC(C(=O)Nc1ccn(-c2ccccc2)n1)c1ccccc1 (stereo not drawn) [Compound 80, 2-phenyl-N-(1-phenylpyrazol-3-yl)propanamide] | 0.047 | 
O=C(Nc1ccn(-c2cc(F)c(O)c(F)c2)n1)C1(c2ccccc2F)CC1 [Compound 357, N-[1-(3,5-difluoro-4-hydroxy-phenyl)pyrazol-3-yl]-1-(2-fluorophenyl)cyclopropanecarboxamide] |  | > 5
Cc1ccccc1CC(=O)Nc1ccn(-c2ccccc2)n1 [Compound 44, 2-(o-tolyl)-N-(1-phenylpyrazol-3-yl)acetamide] | 0.24 | 
Cc1ncccc1-n1ccc(NC(=O)C2(c3ccccc3F)CC2)n1 [Compound 471, 1-(2-fluorophenyl)-N-[1-(2-methyl-3-pyridyl)pyrazol-3-yl]cyclopropanecarboxamide] | > 5 | 
N#Cc1cncc(-n2ccc(NC(=O)C3(c4ccccc4F)CC3)n2)c1 [Compound 318, N-[1-(5-cyano-3-pyridyl)pyrazol-3-yl]-1-(2-fluorophenyl)cyclopropanecarboxamide] |  | > 5
O=C(Cc1ccc(Cl)cc1)Nc1ccn(-c2ccccc2)n1 [Compound 6, 2-(4-chlorophenyl)-N-(1-phenylpyrazol-3-yl)acetamide] | > 5 | 
CSCC(C(=O)Nc1ccn(-c2ccccc2)n1)c1ccccc1 (stereo not drawn) [Compound 170, 3-methylsulfanyl-2-phenyl-N-(1-phenylpyrazol-3-yl)propanamide] | > 5 | 
